Test results published in US12404289B2 (Gilead Sciences, Inc., priority 2020, dated 2025).

What was measured:
SARS-CoV-2 = SARS-CoV-2 antiviral assay (A549-hACE2, Nano luciferase); assay type: cell-based; conditions: Severe acute respiratory syndrome coronavirus 2, 48 h, A549-hACE2 cells, SARS-CoV2-Nano, MOI 0.025, 48 h; Table 4; read-out: EC50 SARS CoV2
[1] = system: Respiratory syncytial virus (RSV) strain A2; assay: Hep-2 RSV2 384-well assay (EC50-HEP2-384); assay type: cell-based; conditions: HEp-2 cells, RSV A2, MOI=4, 4 days, Table 3
[2] = human respiratory syncytial virus, HEp-2, 96 h

| Compound | EC50 (SARS-CoV-2) | EC50 [1, 2] | EC50 [1] |
| --- | --- | --- | --- |
| C[C@H](NP(=O)(OC[C@H]1O[C@@](C#N)(c2ccc3c(N)ncnn23)[C@H](O)[C@@H]1O)Oc1ccc(C(C)(C)C)cc1)C(=O)OCC1CCCCC1 (stereo partly drawn) [Example 156, Cyclohexylmethyl ((((2R,3S,4R,5R)-5-(4-aminopyrrolo[2,1-f][1,2,4]triazin-7-yl)-5-cyano-3,4-dihydroxytetrahydrofuran-2-yl)methoxy)(4-(tert-butyl)phenoxy)phosphoryl)-L-alaninate] | 363 nM | 195 nM | – |
| C[C@H](NP(=O)(OC[C@H]1O[C@@](C#N)(c2ccc3c(N)ncnn23)[C@H](O)[C@@H]1O)Oc1ccc(C(C)(C)C)cc1)C(=O)OCC1CC1 (stereo partly drawn) [Example 101a, Cyclopropyl methyl ((((2R,3S,4R,5R)-5-(4-aminopyrrolo[2,1-f][1,2,4]triazin-7-yl)-5-cyano-3,4-dihydroxytetrahydrofuran-2-yl)methoxy)(4-(tert-butyl)phenoxy)phosphoryl)-L-alaninate] | 148 nM | 41.1 nM | – |
| C[C@H](NP(=O)(OC[C@H]1O[C@@](C#N)(c2ccc3c(N)ncnn23)[C@H](O)[C@@H]1O)Oc1ccc(C(C)(C)C)cc1)C(=O)OC1CCC1 (stereo partly drawn) [Example 31, Cyclobutyl ((((2R,3S,4R,5R)-5-(4-aminopyrrolo[2,1-f][1,2,4]triazin-7-yl)-5-cyano-3,4-dihydroxytetrahydrofuran-2-yl)methoxy)(4-(tert-butyl)phenoxy)phosphoryl)-L-alaninate] | 250 nM | 53.2 nM | – |
| CCC(=O)O[C@H]1[C@@H](OC(=O)CC)[C@](C#N)(c2ccc3c(N)ncnn23)O[C@@H]1COP(=O)(N[C@@H](C)C(=O)OCC1CC1)Oc1ccc(C(C)(C)C)cc1 (stereo partly drawn) [Example 103b, (2R,3R,4R,5R)-2-(4-aminopyrrolo[2,1-f][1,2,4]triazin-7-yl)-5-((((4-(tert-butyl)phenoxy)(((S)-1-(cyclopropylmethoxy)-1-oxopropan-2-yl)amino)phosphoryl)oxy)methyl)-2-cyanotetrahydrofuran-3,4-diyl Dipropionate] | 363 nM | 42 nM | – |
| CCC(=O)O[C@H]1[C@@H](OC(=O)CC)[C@](C#N)(c2ccc3c(N)ncnn23)O[C@@H]1COP(=O)(N[C@@H](C)C(=O)OCCC(C)(C)CC)Oc1ccccc1 (stereo partly drawn) [Example 105a, (2R,3R,4R,5R)-2-(4-aminopyrrolo[2,1-f][1,2,4]triazin-7-yl)-2-cyano-5-((((((S)-1-((3,3-dimethylpentyl)oxy)-1-oxopropan-2-yl)amino)(phenoxy)phosphoryl)oxy)methyl)tetrahydrofuran-3,4-diyl Dipropionate] | 133 nM | 54.6 nM | – |
| CCC(C)(C)CCOC(=O)[C@H](C)NP(=O)(OC[C@H]1O[C@@](C#N)(c2ccc3c(N)ncnn23)[C@H](O)[C@@H]1O)Oc1ccc(C(C)(C)C)cc1 (stereo partly drawn) [Example 154, 3,3-dimethylpentyl ((((2R,3S,4R,5R)-5-(4-aminopyrrolo[2,1-f][1,2,4]triazin-7-yl)-5-cyano-3,4-dihydroxytetrahydrofuran-2-yl)methoxy)(4-(tert-butyl)phenoxy)phosphoryl)-L-alaninate] | 330 nM | 105 nM | – |
| CCC(=O)O[C@H]1[C@@H](OC(=O)CC)[C@](C#N)(c2ccc3c(N)ncnn23)O[C@@H]1COP(=O)(N[C@@H](C)C(=O)OC1CC(C)(C)C1)Oc1ccc(C(C)(C)C)cc1 (stereo partly drawn) [Example 95, (2R,3R,4R,5R)-2-(4-aminopyrrolo[2,1-f][1,2,4]triazin-7-yl)-5-((((4-(tert-butyl)phenoxy)(((S)-1-(3,3-dimethylcyclobutoxy)-1-oxopropan-2-yl)amino)phosphoryl)oxy)methyl)-2-cyanotetrahydrofuran-3,4-diyl Dipropionate] | 264 nM | 61.8 nM | – |
| CC(=O)O[C@H]1[C@@H](OC(C)=O)[C@](C#N)(c2ccc3c(N)ncnn23)O[C@@H]1COP(=O)(N[C@@H](C)CC(=O)OC1CCC1)Oc1ccc(C(C)(C)C)cc1 (stereo partly drawn) [Example 166, (2R,3R,4R,5R)-2-(4-aminopyrrolo[2,1-f][1,2,4]triazin-7-yl)-5-((((4-(tert-butyl)phenoxy)(((S)-4-cyclobutoxy-4-oxobutan-2-yl)amino)phosphoryl)oxy)methyl)-2-cyanotetrahydrofuran-3,4-diyl Diacetate] | 10000 nM | 5000 nM | – |
| CCC(=O)O[C@H]1[C@@H](OC(=O)CC)[C@](C#N)(c2ccc3c(N)ncnn23)O[C@@H]1COP(=O)(N[C@@H](C)C(=O)OCC(C)C)Oc1ccc(C(C)(C)C)cc1 (stereo partly drawn) [Example 138, (2R,3R,4R,5R)-2-(4-aminopyrrolo[2,1-f][1,2,4]triazin-7-yl)-5-((((4-(tert-butyl)phenoxy)(((S)-1-isobutoxy-1-oxopropan-2-yl)amino)phosphoryl)oxy)methyl)-2-cyanotetrahydrofuran-3,4-diyl Dipropionate] | 342 nM | 36.6 nM | – |
| CCC(CC)COC(=O)[C@H](C)NP(=O)(OC[C@H]1O[C@@](C#N)(c2ccc3c(N)ncnn23)[C@H](OC(=O)C(C)C)[C@@H]1OC(=O)C(C)C)Oc1ccc(OC2CCCCC2)cc1 (stereo partly drawn) [Example 153, (2R,3R,4R,5R)-2-(4-aminopyrrolo[2,1-f][1,2,4]triazin-7-yl)-2-cyano-5-((((4-(cyclohexyloxy)phenoxy)(((S)-1-(2-ethylbutoxy)-1-oxopropan-2-yl)amino)phosphoryl)oxy)methyl)tetrahydrofuran-3,4-diyl bis(2-methylpropanoate)] | – | 270 nM | – |
| COC(C)COC(=O)[C@H](C)NP(=O)(OC[C@H]1O[C@@](C#N)(c2ccc3c(N)ncnn23)[C@H](OC(C)=O)[C@@H]1OC(C)=O)Oc1ccc(C(C)(C)C)cc1 (stereo partly drawn) [Example 161, (2R,3R,4R,5R)-2-(4-aminopyrrolo[2,1-f][1,2,4]triazin-7-yl)-5-((((4-(tert-butyl)phenoxy)(((2S)-1-(2-methoxypropoxy)-1-oxopropan-2-yl)amino)phosphoryl)oxy)methyl)-2-cyanotetrahydrofuran-3,4-diyl Diacetate] | – | 113 nM | – |
| CC(C)C(=O)O[C@H]1[C@@H](OC(=O)C(C)C)[C@](C#N)(c2ccc3c(N)ncnn23)O[C@@H]1CO[P@@](=O)(N[C@@H](C)C(=O)O[C@H]1CCOC1)Oc1ccc(C(C)(C)C)cc1 [Example 38, (2R,3R,4R,5R)-2-(4-aminopyrrolo[2,1-f][1,2,4]triazin-7-yl)-5-((((4-(tert-butyl)phenoxy)(((S)-1-oxo-1-(((S)-tetrahydrofuran-3-yl)oxy)propan-2-yl)amino)phosphoryl)oxy)methyl)-2-cyanotetrahydrofuran-3,4-diyl bis(2-methylpropanoate)] | – | 138 nM | – |
| C[C@H](NP(=O)(OC[C@H]1O[C@@](C#N)(c2ccc3c(N)ncnn23)[C@H](O)[C@@H]1O)Oc1ccc(C(C)(C)C)cc1)C(=O)O[C@H]1CCOC1 (stereo partly drawn) [Example 34, (S)-tetrahydrofuran-3-yl ((((2R,3S,4R,5R)-5-(4-aminopyrrolo[2,1-f][1,2,4]triazin-7-yl)-5-cyano-3,4-dihydroxytetrahydrofuran-2-yl)methoxy)(4-(tert-butyl)phenoxy)phosphoryl)-L-alaninate] | – | 1500 nM | – |
| CC(=O)O[C@H]1[C@@H](OC(C)=O)[C@](C#N)(c2ccc3c(N)ncnn23)O[C@@H]1COP(=O)(N[C@@H](C)C(=O)OC1CC2(CCCC2)C1)Oc1ccc(C(C)(C)C)cc1 (stereo partly drawn) [Example 98b, (2R,3R,4R,5R)-2-(4-aminopyrrolo[2,1-f][1,2,4]triazin-7-yl)-5-((((4-(tert-butyl)phenoxy)(((S)-1-oxo-1-(spiro[3.4]octan-2-yloxy)propan-2-yl)amino)phosphoryl)oxy)methyl)-2-cyanotetrahydrofuran-3,4-diyl Diacetate] | – | – | 52.2 nM |
| CC(C)C(=O)O[C@H]1[C@@H](OC(=O)C(C)C)[C@](C#N)(c2ccc3c(N)ncnn23)O[C@@H]1COP(=O)(N[C@@H](C)C(=O)OC1CCCCC1)Oc1ccc(C(C)(C)C)cc1 (stereo partly drawn) [Example 149, (2R,3R,4R,5R)-2-(4-aminopyrrolo[2,1-f][1,2,4]triazin-7-yl)-5-((((4-(tert-butyl)phenoxy)(((S)-1-(cyclohexyloxy)-1-oxopropan-2-yl)amino)phosphoryl)oxy)methyl)-2-cyanotetrahydrofuran-3,4-diyl bis(2-methylpropanoate)] | – | 99.4 nM | – |
| CCC(CC)COC(=O)[C@H](C)NP(=O)(OC[C@H]1O[C@@](C#N)(c2ccc3c(N)ncnn23)[C@H](OC(=O)C(C)C)[C@@H]1OC(=O)C(C)C)Oc1ccc2c(c1)CCCC2 (stereo partly drawn) [Example 132, (2R,3R,4R,5R)-2-(4-aminopyrrolo[2,1-f][1,2,4]triazin-7-yl)-2-cyano-5-((((((S)-1-(2-ethylbutoxy)-1-oxopropan-2-yl)amino)((5,6,7,8-tetrahydronaphthalen-2-yl)oxy)phosphoryl)oxy)methyl) tetrahydrofuran-3,4-diyl bis(2-methylpropanoate)] | – | 126 nM | – |
| CCC(=O)O[C@H]1[C@@H](OC(=O)CC)[C@](C#N)(c2ccc3c(N)ncnn23)O[C@@H]1COP(=O)(N[C@@H](C)C(=O)OC1CC2(CCCC2)C1)Oc1ccc(C(C)(C)C)cc1 (stereo partly drawn) [Example 99a, (2R,3R,4R,5R)-2-(4-aminopyrrolo[2,1-f][1,2,4]triazin-7-yl)-5-((((4-(tert-butyl)phenoxy)(((S)-1-oxo-1-(spiro[3.4]octan-2-yloxy)propan-2-yl)amino)phosphoryl)oxy)methyl)-2-cyanotetrahydrofuran-3,4-diyl Dipropionate] | – | 81.7 nM | – |
| CC(C)COC(=O)[C@H](C)NP(=O)(OC[C@H]1O[C@@](C#N)(c2ccc3c(N)ncnn23)[C@H](OC(=O)CC(C)C)[C@@H]1OC(=O)CC(C)C)Oc1ccc(C(C)(C)C)cc1 (stereo partly drawn) [Example 139, (2R,3R,4R,5R)-2-(4-aminopyrrolo[2,1-f][1,2,4]triazin-7-yl)-5-((((4-(tert-butyl)phenoxy)(((S)-1-isobutoxy-1-oxopropan-2-yl)amino)phosphoryl)oxy)methyl)-2-cyanotetrahydrofuran-3,4-diyl bis(3-methylbutanoate)] | – | 194 nM | – |
